Data from patent US10597388B2, “Pyridazinone herbicides” (FMC CORPORATION, priority 2014, dated 2020).

Assays:
Type in all cases: in vivo
[1] = system: oat, wild (wild oat, Avena fatua); assay: Test C greenhouse herbicide test, postemergence
In short: (§1)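 Ratings are visual scores from 0 (no effect) to 100 (complete control), made against controls 13–15 d after treatment. Postemergence sprays were applied in the greenhouse to plants 2–18 cm tall (1- to 4-leaf stage) in peat-moss/vermiculite potting medium.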

kochia (Kochia scoparia) = assay: Test C greenhouse herbicide test, postemergence
In short: as §1

[2] = system: velvetleaf (Abutilon theophrasti); assay: Test C greenhouse herbicide test, pre- and postemergence
In short: (§2)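 Two application timings: at sowing into a soil/sand blend, and on 2–18 cm seedlings in peat-vermiculite potting mix. A non-phytotoxic, surfactant-containing solvent carried the compounds. Plants were compared with controls and rated visually on 0–100 after 13–15 d.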

[3] = system: waterhemp (common waterhemp, Amaranthus rudis); assay: as above
In short: as §2

[4] = system: barnyardgrass (Echinochloa crus-galli); assay: as above
In short: as §2

soybean (Glycine max) = assay: as above
In short: as §2

[5] = system: oilseed rape (Brassica napus); assay: as above
In short: as §2

[6] = system: wheat (winter wheat, Triticum aestivum); assay: as above
In short: as §2

[7] = system: crabgrass, large (large crabgrass, Digitaria sanguinalis); assay: as above
In short: as §2

[8] = system: ragweed (common ragweed, Ambrosia elatior); assay: as above
In short: as §2

[9] = system: blackgrass (Alopecurus myosuroides); assay: as above
In short: as §2

[10] = system: morningglory (Ipomoea coccinea); assay: as above
In short: as §2

[11] = system: johnsongrass (Sorghum halepense); assay: as above
In short: as §2

[12] = system: pigweed (Amaranthus retroflexus); assay: as above
In short: as §2

[13] = system: galium (catchweed bedstraw, Galium aparine); assay: as above
In short: as §2

corn (Zea mays) = assay: as above
In short: as §2

[14] = system: foxtail, giant (giant foxtail, Setaria faberii); assay: as above
In short: as §2

[15] = Postemergence, 31 g ai/ha, scale 0 to 100 (0 no effect, 100 complete control)
[16] = Postemergence, 62 g ai/ha, 0 to 100 scale (0 no effect, 100 complete control)
[17] = Postemergence, 250 g ai/ha, scale 0 to 100, 0 no effect, 100 complete control, 13 to 15 d
[18] = postemergence, 125 g ai/ha, scale 0 to 100, 0 no effect, 100 complete control
[19] = Preemergence, 31 g ai/ha, scale 0 to 100, 0 is no effect, 100 is complete control
[20] = Preemergence, 62 g ai/ha, scale 0 to 100, 0 is no effect, 100 is complete control
[21] = Preemergence, 125 g ai/ha, scale 0 to 100, 0 is no effect, 100 is complete control
[22] = Preemergence, 250 g ai/ha, scale 0 to 100 (0 no effect, 100 complete control)

COC(=O)Oc1c(Br)nn(C)c(=O)c1-c1c(C)ccc2ccccc12 [Compound 137]
98: Plant response rating, Waterhemp [3, 20] | Waterhemp plant response rating [3, 22] | Oilseed Rape plant response rating [5, 16] | Plant response rating, Oilseed Rape [5, 17] | Oilseed Rape plant response rating [5, 18] | Morningglory plant response rating [10, 16] | Morningglory plant response rating [10, 22] | Pigweed plant response rating [12, 16] | Pigweed plant response rating [12, 18] | Plant response rating, Galium [13, 19] | Plant response rating, Galium [13, 20] | Plant response rating, Galium [13, 21]
40: Barnyardgrass plant response rating [4, 16] | Plant response rating, Soybean (soybean (Glycine max); [21]) | Plant response rating, Ragweed [8, 17] | Plant response rating, Blackgrass [9, 20]
25: Plant response rating, Barnyardgrass [4, 15]
70: Plant response rating, Oat, Wild [1, 15] | Oat, Wild plant response rating [1, 16] | Plant response rating, Crabgrass, Large [7, 21] | Plant response rating, Morningglory [10, 19]
80: Plant response rating, Velvetleaf [2, 19] | Plant response rating, Wheat [6, 20] | Crabgrass, Large plant response rating [7, 22] | Plant response rating, Ragweed [8, 19] | Foxtail, Giant plant response rating [14, 18]
85: Plant response rating, Velvetleaf [2, 15] | Plant response rating, Waterhemp [3, 15] | Plant response rating, Waterhemp [3, 19] | Waterhemp plant response rating [3, 18] | Plant response rating, Barnyardgrass [4, 20] | Plant response rating, Morningglory [10, 20] | Plant response rating, Galium [13, 15] | Plant response rating, Foxtail, Giant [14, 20]
45: Plant response rating, Foxtail, Giant [14, 15]
75: Plant response rating, Wheat [6, 15]
10: Plant response rating, Soybean (soybean (Glycine max); [15]) | Soybean plant response rating (soybean (Glycine max); [16]) | Plant response rating, Ragweed [8, 15] | Plant response rating, Johnsongrass [11, 15] | Johnsongrass plant response rating [11, 16] | Plant response rating, Corn (corn (Zea mays); [20]) | Plant response rating, Corn (corn (Zea mays); [21]) | Corn plant response rating (corn (Zea mays); [18])
5: Plant response rating, Johnsongrass [11, 20] | Plant response rating, Corn (corn (Zea mays); [15])
55: Corn plant response rating (corn (Zea mays); [22])
65: Waterhemp plant response rating [3, 16] | Plant response rating, Barnyardgrass [4, 17] | Plant response rating, Foxtail, Giant [14, 19]
30: Plant response rating, Soybean (soybean (Glycine max); [19]) | Soybean plant response rating (soybean (Glycine max); [22]) | Plant response rating, Crabgrass, Large [7, 15] | Crabgrass, Large plant response rating [7, 16] | Ragweed plant response rating [8, 18] | Plant response rating, Blackgrass [9, 19] | Plant response rating, Blackgrass [9, 21]
90: Plant response rating, Oat, Wild [1, 17] | Oat, Wild plant response rating [1, 18] | Velvetleaf plant response rating [2, 16] | Velvetleaf plant response rating [2, 18] | Plant response rating, Waterhemp [3, 17] | Plant response rating, Barnyardgrass [4, 21] | Plant response rating, Oilseed Rape [5, 20] | Oilseed Rape plant response rating [5, 22] | Wheat plant response rating [6, 16] | Plant response rating, Wheat [6, 21] | Wheat plant response rating [6, 22] | Wheat plant response rating [6, 18] | Blackgrass plant response rating [9, 22] | Plant response rating, Morningglory [10, 21] | Plant response rating, Pigweed [12, 15] | Galium plant response rating [13, 16] | Galium plant response rating [13, 18]
50: Plant response rating, Barnyardgrass ([4]; Postemergence, 125 g ai/ha, scale 0 to 100, 0 is no effect, 100 is complete control) | Plant response rating, Oilseed Rape [5, 21]
15: Soybean plant response rating (soybean (Glycine max); [18]) | Plant response rating, Wheat [6, 19] | Plant response rating, Johnsongrass [11, 17] | Johnsongrass plant response rating [11, 18] | Corn plant response rating (corn (Zea mays); [16])
100: Plant response rating, Kochia (kochia (Kochia scoparia); [15]) | Kochia plant response rating (kochia (Kochia scoparia); [16]) | Plant response rating, Kochia (kochia (Kochia scoparia); [17]) | Kochia plant response rating (kochia (Kochia scoparia); [18]) | Plant response rating, Velvetleaf [2, 20] | Plant response rating, Velvetleaf [2, 21] | Velvetleaf plant response rating [2, 22] | Barnyardgrass plant response rating [4, 22] | Ragweed plant response rating [8, 22] | Plant response rating, Morningglory [10, 15] | Plant response rating, Morningglory [10, 17] | Morningglory plant response rating [10, 18] | Plant response rating, Pigweed [12, 17] | Plant response rating, Pigweed [12, 19] | Plant response rating, Pigweed [12, 20] | Plant response rating, Pigweed [12, 21] | Pigweed plant response rating [12, 22] | Galium plant response rating [13, 22] | Foxtail, Giant plant response rating [14, 22]
35: Plant response rating, Barnyardgrass [4, 19] | Plant response rating, Crabgrass, Large [7, 17] | Crabgrass, Large plant response rating [7, 18]
95: Plant response rating, Velvetleaf [2, 17] | Plant response rating, Waterhemp [3, 21] | Plant response rating, Oilseed Rape [5, 15] | Plant response rating, Wheat [6, 17] | Plant response rating, Ragweed [8, 20] | Plant response rating, Ragweed [8, 21] | Plant response rating, Galium [13, 17] | Plant response rating, Foxtail, Giant [14, 17] | Plant response rating, Foxtail, Giant [14, 21]
20: Plant response rating, Soybean (soybean (Glycine max); [17]) | Plant response rating, Soybean (soybean (Glycine max); [20]) | Plant response rating, Crabgrass, Large [7, 19] | Plant response rating, Crabgrass, Large [7, 20] | Ragweed plant response rating [8, 16] | Plant response rating, Johnsongrass [11, 21] | Johnsongrass plant response rating [11, 22] | Plant response rating, Corn (corn (Zea mays); [17])
60: Foxtail, Giant plant response rating [14, 16]
0: Plant response rating, Oilseed Rape [5, 19] | Plant response rating, Blackgrass [9, 15] | Blackgrass plant response rating [9, 16] | Plant response rating, Blackgrass [9, 17] | Blackgrass plant response rating [9, 18] | Plant response rating, Johnsongrass [11, 19] | Plant response rating, Corn (corn (Zea mays); [19])
